Read-outs that look alike come from different tables or passages of the source.
Key:
Assay type in all cases: cell-based, human
[1] = test system: non-senescent control A549 cells; assay: Nuclei count senolytic assay, TIS model, non-senescent control cells; conditions: Homo sapiens, A549, Control cells, mean, read-out: Mean % Cell Survival
Method in brief: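 Etoposide 100 μM, 48 h, + 3 d standard media → senescent A549; untreated A549 = controls. 24 h post-seeding, cpds 10 nM–10 μM final, 10-pt […], 72 h, n=3. Fix formaldehyde, permeabilise Triton-X100, Hoechst 2 μg/ml, image, count nuclei.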

[2] = test system: senescent IMR90 ER:RAS cells (4-OHT-induced); assay: Nuclei count (Hoechst, high content imaging) senolytic assay, oncogene-induced senescence (OIS) model, senescent cells; conditions: Homo sapiens
Method in brief: (§1)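 IMR90 ER:RAS (p14), ±4-OHT 100 nM; cpd 10 nM–10 μM, 10-pt […], 72 h, n=3. Fix formaldehyde, Triton X-100, Hoechst 2 μg/ml final. Readout: imaged nuclei count vs untreated; ouabain positive control.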

[3] = test system: non-senescent control IMR90 ER:RAS cells; assay: Nuclei count (Hoechst, high content imaging) senolytic assay, OIS model, non-senescent control cells; conditions: Homo sapiens
Method in brief: as §1

SMILES: COC[C@H]1C[C@@H](c2nc(-c3ccc4c(c3)COc3cc5c(ccc6nc([C@@H]7CC[C@H](C)N7C(=O)[C@@H](NC(=O)OC)C(C)C)[nH]c65)cc3-4)c[nH]2)N(C(=O)[C@H](NC(=O)OC)c2ccccc2)C1 [Velpatasvir, velpatasvir, reference compound]
- viability at 10 µM ([1]; log (dose) [M] -5): 80.9%
- viability at 4.68 µM ([1]; log (dose) [M] -5.33): 84.4%
- viability at 2.19 µM ([1]; log (dose) [M] -5.66): 80.3%
- viability at 1 µM ([1]; log (dose) [M] -6): 52.9%
- viability at 0.468 µM ([1]; log (dose) [M] -6.33): 93.4%
- viability at 0.219 µM ([1]; log (dose) [M] -6.66): 28.7%
- viability at 0.1 µM ([1]; log (dose) [M] -7): 88.2%
- viability at 0.0468 µM ([1]; log (dose) [M] -7.33): 89.2%
- viability at 0.0219 µM ([1]; log (dose) [M] -7.66): 92.1%
- viability at 0.01 µM ([1]; log (dose) [M] -8): 96.1%
- viability at 10 µM ([2]; IMR-90, 72 h, Senescent, log (dose) [M] -5, 72 h, mean n=3 (Fig 3C), read-out: Mean % Cell Survival): 97.8%
- viability at 4.677 µM ([2]; IMR-90, 72 h, Senescent, log (dose) [M] -5.33, 72 h, mean n=3 (Fig 3C), read-out: Mean % Cell Survival): 116%
- viability at 2.188 µM ([2]; IMR-90, 72 h, Senescent, log (dose) [M] -5.66, 72 h, mean n=3 (Fig 3C), read-out: Mean % Cell Survival): 102%
- viability at 1 µM ([2]; IMR-90, 72 h, Senescent, log (dose) [M] -6, 72 h, mean n=3 (Fig 3C), read-out: Mean % Cell Survival): 112%
- viability at 0.4677 µM ([2]; IMR-90, 72 h, Senescent, log (dose) [M] -6.33, 72 h, mean n=3 (Fig 3C), read-out: Mean % Cell Survival): 78.2%
- viability at 0.2188 µM ([2]; IMR-90, 72 h, Senescent, log (dose) [M] -6.66, 72 h, mean n=3 (Fig 3C), read-out: Mean % Cell Survival): 83.6%
- viability at 0.1 µM ([2]; IMR-90, 72 h, Senescent, log (dose) [M] -7, 72 h, mean n=3 (Fig 3C), read-out: Mean % Cell Survival): 88.6%
- viability at 0.04677 µM ([2]; IMR-90, 72 h, Senescent, log (dose) [M] -7.33, 72 h, mean n=3 (Fig 3C), read-out: Mean % Cell Survival): 91.5%
- viability at 0.02188 µM ([2]; IMR-90, 72 h, Senescent, log (dose) [M] -7.66, 72 h, mean n=3 (Fig 3C), read-out: Mean % Cell Survival): 108%
- viability at 0.01 µM ([2]; IMR-90, 72 h, Senescent, log (dose) [M] -8, 72 h, mean n=3 (Fig 3C), read-out: Mean % Cell Survival): 100%
- viability at 10 µM ([2]; IMR-90, Senescent cells, log (dose) [M] -5, individual replicates, SUP FIG 4C, read-out: % Cell Survival): 100%
- viability at 2.188 µM ([2]; IMR-90, Senescent cells, log (dose) [M] -5.66, individual replicates, SUP FIG 4C, read-out: % Cell Survival): 111%
- viability at 1 µM ([2]; IMR-90, Senescent cells, log (dose) [M] -6, individual replicates, SUP FIG 4C, read-out: % Cell Survival): 108%
- viability at 0.2188 µM ([2]; IMR-90, Senescent cells, log (dose) [M] -6.66, individual replicates, SUP FIG 4C, read-out: % Cell Survival): 90.3%
- viability at 0.1 µM ([2]; IMR-90, Senescent cells, log (dose) [M] -7, individual replicates, SUP FIG 4C, read-out: % Cell Survival): 89%
- viability at 0.04677 µM ([2]; IMR-90, Senescent cells, log (dose) [M] -7.33, individual replicates, SUP FIG 4C, read-out: % Cell Survival): 85.1%
- viability at 0.02188 µM ([2]; IMR-90, Senescent cells, log (dose) [M] -7.66, individual replicates, SUP FIG 4C, read-out: % Cell Survival): 103%
- viability at 0.01 µM ([2]; IMR-90, Senescent cells, log (dose) [M] -8, individual replicates, SUP FIG 4C, read-out: % Cell Survival): 94.1%
- viability at 10 µM ([3]; IMR-90, 72 h, Control, log (dose) [M] -5, 72 h, mean n=3 (Fig 3C), read-out: Mean % Cell Survival): 119%
- viability at 4.677 µM ([3]; IMR-90, 72 h, Control, log (dose) [M] -5.33, 72 h, mean n=3 (Fig 3C), read-out: Mean % Cell Survival): 116%
- viability at 2.188 µM ([3]; IMR-90, 72 h, Control, log (dose) [M] -5.66, 72 h, mean n=3 (Fig 3C), read-out: Mean % Cell Survival): 113%
- viability at 1 µM ([3]; IMR-90, 72 h, Control, log (dose) [M] -6, 72 h, mean n=3 (Fig 3C), read-out: Mean % Cell Survival): 115%
- viability at 0.4677 µM ([3]; IMR-90, 72 h, Control, log (dose) [M] -6.33, 72 h, mean n=3 (Fig 3C), read-out: Mean % Cell Survival): 86.1%
- viability at 0.2188 µM ([3]; IMR-90, 72 h, Control, log (dose) [M] -6.66, 72 h, mean n=3 (Fig 3C), read-out: Mean % Cell Survival): 99.9%
- viability at 0.1 µM ([3]; IMR-90, 72 h, Control, log (dose) [M] -7, 72 h, mean n=3 (Fig 3C), read-out: Mean % Cell Survival): 98.3%
- viability at 0.04677 µM ([3]; IMR-90, 72 h, Control, log (dose) [M] -7.33, 72 h, mean n=3 (Fig 3C), read-out: Mean % Cell Survival): 106%
- viability at 0.02188 µM ([3]; IMR-90, 72 h, Control, log (dose) [M] -7.66, 72 h, mean n=3 (Fig 3C), read-out: Mean % Cell Survival): 110%
- viability at 0.01 µM ([3]; IMR-90, 72 h, Control, log (dose) [M] -8, 72 h, mean n=3 (Fig 3C), read-out: Mean % Cell Survival): 96.2%
- viability at 10 µM ([3]; IMR-90, Control cells, log (dose) [M] -5, individual replicates, SUP FIG 4C, read-out: % Cell Survival): 113%
- viability at 0.2188 µM ([3]; IMR-90, Control cells, log (dose) [M] -6.66, individual replicates, SUP FIG 4C, read-out: % Cell Survival): 91.6%
- viability at 0.04677 µM ([3]; IMR-90, Control cells, log (dose) [M] -7.33, individual replicates, SUP FIG 4C, read-out: % Cell Survival): 101%
- viability at 10 µM ([3]; IMR-90, Control, log (dose) [M] -5, read-out: % Cell Survival): 82.9%
- viability at 4.68 µM ([3]; IMR-90, Control, log (dose) [M] -5.33, read-out: % Cell Survival): 85.2%
- viability at 2.19 µM ([3]; IMR-90, Control, log (dose) [M] -5.66, read-out: % Cell Survival): 80.3%
- viability at 1 µM ([3]; IMR-90, Control, log (dose) [M] -6, read-out: % Cell Survival): 80.7%
- viability at 0.219 µM ([3]; IMR-90, Control, log (dose) [M] -6.66, read-out: % Cell Survival): 86%
- viability at 0.1 µM ([3]; IMR-90, Control, log (dose) [M] -7, read-out: % Cell Survival): 91.2%
- viability at 0.04677 µM ([3]; IMR-90, Control, log (dose) [M] -7.33, read-out: % Cell Survival): 89.7%
- viability at 0.0219 µM ([3]; IMR-90, Control, log (dose) [M] -7.66, read-out: % Cell Survival): 95.3%
- viability at 0.01 µM ([3]; IMR-90, Control, log (dose) [M] -8, read-out: % Cell Survival): 97.1%

From article PMC10257182, “Discovery of senolytics using machine learning” (Nature Communications, 2023)
